Reference: ChEMBL document CHEMBL4311981, “Synthesis, anticancer activity, and molecular modeling of 1,4-naphthoquinones that inhibit MKK7 and Cdc25” (Eur J Med Chem, 2019)
Activity calls are given as the source filed them. No cut-off for these calls is given here.

What was measured:
[1] = biological target: T1, Neutrophil elastase (Homo sapiens) (UniProt P08246); assay: Inhibition of recombinant HNE (unknown origin) at <50 uM using N-methylsuccinyl-Ala-Ala-Pro-Val-7-amino-4-methylcoumarin, as a substrate measured every 30 sec for 10 mins by fluorometric assay
T1 sequence (whole entry): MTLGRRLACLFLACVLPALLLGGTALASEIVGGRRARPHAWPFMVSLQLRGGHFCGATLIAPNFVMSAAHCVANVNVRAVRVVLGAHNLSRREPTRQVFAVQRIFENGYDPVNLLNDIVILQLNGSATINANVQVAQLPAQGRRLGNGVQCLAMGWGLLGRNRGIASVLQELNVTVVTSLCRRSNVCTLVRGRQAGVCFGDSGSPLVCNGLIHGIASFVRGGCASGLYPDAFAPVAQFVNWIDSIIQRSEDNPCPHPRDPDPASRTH

[2] = biological target: T2, M-phase inducer phosphatase 1 (Homo sapiens, UniProt P30304)
T2 sequence (P30304 whole entry): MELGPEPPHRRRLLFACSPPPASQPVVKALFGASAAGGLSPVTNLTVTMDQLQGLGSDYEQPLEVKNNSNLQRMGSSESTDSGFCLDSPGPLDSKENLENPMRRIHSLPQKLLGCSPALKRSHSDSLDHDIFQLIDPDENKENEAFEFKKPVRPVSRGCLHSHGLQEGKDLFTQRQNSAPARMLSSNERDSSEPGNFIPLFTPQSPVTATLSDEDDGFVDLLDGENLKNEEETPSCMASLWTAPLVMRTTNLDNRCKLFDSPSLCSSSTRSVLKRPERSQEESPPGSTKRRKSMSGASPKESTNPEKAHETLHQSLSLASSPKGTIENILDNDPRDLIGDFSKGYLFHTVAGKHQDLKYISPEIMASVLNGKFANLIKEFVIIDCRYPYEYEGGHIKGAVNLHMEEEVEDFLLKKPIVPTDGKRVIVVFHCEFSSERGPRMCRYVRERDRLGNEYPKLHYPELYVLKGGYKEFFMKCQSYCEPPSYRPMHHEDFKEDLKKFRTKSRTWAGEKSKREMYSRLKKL
Description: Inhibition of recombinant Cdc25A (unknown origin) using OMFP as substrate measured every 30 sec for 10 mins by fluorometric assay

[3] = biological target: T3, Dual specificity mitogen-activated protein kinase kinase 7 (Homo sapiens) (UniProt O14733); assay: Binding affinity to MKK7 (unknown origin) expressed in HEK293 cells assessed as dissociation constant at <30 uM by kinomescan method; assay type: cell-based
T3 sequence (whole entry): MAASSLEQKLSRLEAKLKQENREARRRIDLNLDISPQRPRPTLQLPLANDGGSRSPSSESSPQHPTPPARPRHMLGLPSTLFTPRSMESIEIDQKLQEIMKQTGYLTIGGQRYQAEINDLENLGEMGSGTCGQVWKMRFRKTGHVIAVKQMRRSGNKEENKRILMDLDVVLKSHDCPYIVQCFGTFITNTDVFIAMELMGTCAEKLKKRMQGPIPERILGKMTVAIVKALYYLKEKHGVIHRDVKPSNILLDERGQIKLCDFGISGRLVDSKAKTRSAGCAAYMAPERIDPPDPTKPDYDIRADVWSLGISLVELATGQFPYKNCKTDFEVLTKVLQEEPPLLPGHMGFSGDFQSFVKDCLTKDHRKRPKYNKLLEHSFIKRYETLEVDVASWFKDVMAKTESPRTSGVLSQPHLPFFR

[4] = biological target: T4, M-phase inducer phosphatase 2 (Homo sapiens) (UniProt P30305); assay: Inhibition of recombinant Cdc25B (unknown origin) at <50 uM using OMFP as substrate measured every 30 sec for 10 mins by fluorometric assay
T4 sequence (whole entry): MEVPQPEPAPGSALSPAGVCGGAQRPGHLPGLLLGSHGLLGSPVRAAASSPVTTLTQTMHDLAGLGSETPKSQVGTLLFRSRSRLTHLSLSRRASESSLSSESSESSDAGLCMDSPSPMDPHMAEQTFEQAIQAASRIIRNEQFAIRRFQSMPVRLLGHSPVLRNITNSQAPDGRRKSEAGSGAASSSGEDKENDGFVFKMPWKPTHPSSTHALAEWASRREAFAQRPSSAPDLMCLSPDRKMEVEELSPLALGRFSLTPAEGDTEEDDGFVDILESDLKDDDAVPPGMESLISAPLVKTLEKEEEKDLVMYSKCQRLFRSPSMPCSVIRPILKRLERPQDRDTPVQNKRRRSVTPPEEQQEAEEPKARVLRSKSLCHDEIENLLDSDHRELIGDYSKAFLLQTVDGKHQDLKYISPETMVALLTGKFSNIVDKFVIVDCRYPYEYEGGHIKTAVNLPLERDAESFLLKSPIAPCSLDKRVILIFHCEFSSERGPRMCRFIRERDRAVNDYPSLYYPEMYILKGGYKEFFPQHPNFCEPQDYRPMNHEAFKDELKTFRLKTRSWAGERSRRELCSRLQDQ

[5] = biological target: T5, Dual specificity mitogen-activated protein kinase kinase 7 (Homo sapiens, UniProt O14733); assay: biochemical
T5 sequence (O14733 whole entry): T3 sequence (whole entry)
Description: Binding affinity to MKK7 (unknown origin) expressed in HEK293 cells assessed as dissociation constant by kinomescan method

[6] = biological target: T6, M-phase inducer phosphatase 1 (Homo sapiens) (UniProt P30304); assay: Inhibition of recombinant Cdc25A (unknown origin) at <50 uM using OMFP as substrate measured every 30 sec for 10 mins by fluorometric assay
T6 sequence (whole entry): T2 sequence (P30304 whole entry)

MCF7 [7] = assay: Cytotoxicity against human MCF7 cells assessed as reduction in cell viability incubated for 24 hrs by CellTiter-Glo luminescent cell viability assay; assay type: functional, cell-based; conditions: MCF7, 24 h
THP-1 = assay: Cytotoxicity against human THP1 cells assessed as reduction in cell viability incubated for 24 hrs by CellTiter-Glo luminescent cell viability assay; assay type: functional, cell-based; conditions: THP-1, 24 h
U-937 = assay: Cytotoxicity against human U937 cells assessed as reduction in cell viability incubated for 24 hrs by CellTiter-Glo luminescent cell viability assay; assay type: functional, cell-based; conditions: U-937, 24 h
LS174T [8] = assay: Cytotoxicity against human LS174T cells assessed as reduction in cell viability incubated for 24 hrs by CellTiter-Glo luminescent cell viability assay; assay type: functional, cell-based
PBMC [9] = assay: Cytotoxicity against human PBMC cells assessed as reduction in cell viability incubated for 24 hrs by CellTiter-Glo luminescent cell viability assay; assay type: cell-based; conditions: read-out: IC50
Jurkat = assay: cells; conditions: Homo sapiens, 24 h
Description: Cytotoxicity against human Jurkat cells assessed as reduction in cell viability incubated for 24 hrs by CellTiter-Glo luminescent cell viability assay

HL-60 = assay: Cytotoxicity against human HL60 cells assessed as reduction in cell viability incubated for 24 hrs by CellTiter-Glo luminescent cell viability assay; assay type: functional, cell-based; conditions: HL-60, 24 h
[10] = biological target: T7, M-phase inducer phosphatase 2 (Homo sapiens, UniProt P30305)
T7 sequence (P30305 whole entry): T4 sequence (whole entry)
Description: Inhibition of recombinant Cdc25B (unknown origin) using OMFP as substrate measured every 30 sec for 10 mins by fluorometric assay

SW982 [11] = assay: Cytotoxicity against human SW982 cells assessed as reduction in cell viability incubated for 24 hrs by CellTiter-Glo luminescent cell viability assay; assay type: functional, cell-based; conditions: SW982, 24 h
MONO-MAC-6 = assay: Cytotoxicity against human MONO-MAC-6 cells assessed as reduction in cell viability incubated for 24 hrs by CellTiter-Glo luminescent cell viability assay; assay type: functional, cell-based; conditions: MONO-MAC-6, 24 h
A549 [12] = assay: Cytotoxicity against human A549 cells assessed as reduction in cell viability incubated for 24 hrs by CellTiter-Glo luminescent cell viability assay; assay type: functional, cell-based; conditions: for IC50: A549, 24 h
A549 [13] = assay: Cytotoxicity against human A549 cells assessed as reduction in cell viability at <50 uM incubated for 24 hrs by CellTiter-Glo luminescent cell viability assay; assay type: functional, cell-based
LS174T [14] = assay: Cytotoxicity against human LS174T cells assessed as reduction in cell viability at <50 uM incubated for 24 hrs by CellTiter-Glo luminescent cell viability assay; assay type: functional, cell-based
SW982 [15] = assay: Cytotoxicity against human SW982 cells assessed as reduction in cell viability at <50 uM incubated for 24 hrs by CellTiter-Glo luminescent cell viability assay; assay type: functional, cell-based
MCF7 [16] = assay: Cytotoxicity against human MCF7 cells assessed as reduction in cell viability at <50 uM incubated for 24 hrs by CellTiter-Glo luminescent cell viability assay; assay type: functional, cell-based
PBMC [17] = assay: Cytotoxicity against human PBMC cells assessed as reduction in cell viability at <50 uM incubated for 24 hrs by CellTiter-Glo luminescent cell viability assay; assay type: cell-based

Compound | inhibition [1] | IC50 [2] [µM] | inhibition [3] | inhibition [4] | Kd [5] [µM] | IC50 (THP-1) [µM] | IC50 (U-937) [µM] | IC50 (Jurkat) [µM] | IC50 (HL-60) [µM] | IC50 [10] [µM] | IC50 (SW982 [11]) [µM] | IC50 (MONO-MAC-6) [µM] | IC50 (A549 [12]) [µM] | further results
O=C1C(Cl)=C(NCCO)C(=O)c2ccccc21 | inactive | 45.3 | inactive | inactive | – | – | – | – | – | – | – | – | – | –
CC1=C(SCCC(=O)O)C(=O)c2ccccc2C1=O | inactive | 5.1 | – | – | 15 | – | – | – | – | – | – | – | – | –
COC(=O)c1ccc(NC2=C(OC)C(=O)c3ccccc3C2=O)cc1 | inactive | – | inactive | inactive | – | – | – | – | – | – | – | – | – | inhibition [6]: inactive
O=C(O)c1cccc(NC2=C(Cl)C(=O)c3ccccc3C2=O)c1 | inactive | 32.9 | – | – | 1.9 | 8.6 | 7.6 | 8.2 | 12.1 | 24.3 | 5.5 | 13.4 | 26.2 | IC50 (MCF7 [7]): 28.5 µM; IC50 (LS174T [8]): 11.7 µM; IC50 (PBMC [9]): 37.9 µM
O=C(O)CNC1=C(Cl)C(=O)c2ccccc2C1=O | inactive | 36 | inactive | inactive | – | – | – | – | – | – | – | – | – | –
COc1ccc(OC)c2c1C(=O)C=C(SCCC(=O)O)C2=O | inactive | 26 | – | – | – | 33.3 | 26.6 | 21.3 | 28.7 | 7.8 | – | 12.8 | – | Activity (A549 [13]): inactive; Activity (LS174T [14]): inactive; Activity (SW982 [15]): inactive; Activity (MCF7 [16]): inactive; Activity [3]: inactive; Activity (PBMC [17]): Non-Toxic
O=C(O)CSC1=CC(=O)c2ccccc2C1=O | inactive | 0.05 | – | – | 1.4 | – | 15.9 | 0.94 | 20.4 | 1 | 11.1 | 23.2 | 22.9 | Activity (A549 [12]): inactive
O=C1C(Cl)=C(NCCCO)C(=O)c2ccccc21 | inactive | 45.7 | inactive | inactive | – | – | – | – | – | – | – | – | – | –
CC1=C(SC(C)C)C(=O)c2ccccc2C1=O | inactive | 6.3 | – | – | 13 | 3.6 | 8.9 | 4.7 | 4.3 | 9.1 | 12.8 | 2 | 24 | IC50 (MCF7 [7]): 16.8 µM; IC50 (LS174T [8]): 20.8 µM
